The values that follow come from PubChem BioAssay (NCI).

Assay in all cases: NCI tumour cell line growth inhibition, 48 h
Test [1] relates to HL-60(TB) leukemia.
For test [2], the system named is PC-3 prostate.
The test system of test [3] is MOLT-4 leukemia.
Test [4] concerns NCI/ADR-RES ovarian.
Test [5] concerns NCI-H23 lung.
The subject of test [6] is DU-145 prostate.
Test [7] deals with OVCAR-5 ovarian.
Test [8] relates to NCI-H226 lung.
For test [9], the system named is MDA-MB-435.
For test [10], the system named is SF-539 CNS.
Test [11] concerns RPMI-8226 leukemia.
The subject of test [12] is KM20L2 colon.
Test [13] concerns LXFL 529 NSCLC.
The subject of test [14] is M19-MEL melanoma.

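Exposure lasted 48 hours, with cells grown in 96-well plates and compounds tested at five concentrations. Abbreviation: GI50, concentration required for 50% inhibition of growth. The concentration for full growth arrest is given as TGI.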 Some results are limits rather than exact numbers.

In the case of `NS(=O)(=O)c1ccc(CNc2nc(-c3cccs3)nc3ccc(I)cc23)cc1`, the GI50 in test [1] is 29.9 µM. Further, the TGI in test [1] was more than 100 µM; in [2] it was 53.3 µM; in test [3], 81.8 µM; in test [4], 77.6 µM; in test [5] it was 38.4 µM; in test [6] it was 30.3 µM. In addition, the TGI is 44.4 µM in test [7]; 40.1 µM in [8]; 27.8 µM in test [9]; 30.8 µM in [10]; 49.5 µM in test [11].

Take `COc1cc([N+](=O)[O-])ccc1NC1=CC(=O)CCC1`: the TGI in test [1], in test [2], in [3], in test [4], in [5] and in test [6] was more than 100 µM in each case. The TGI in [7], in test [8], in [9], in test [10] and in [11] was more than 100 µM in each case.

Regarding `Cc1cc(C)c2c(=O)n(CN3CCC(O)(c4ccccc4)CC3)sc2n1`, the TGI in test [1] is 62.3 µM; in [2], more than 100 µM; in [3] it was 76.3 µM; in test [4], more than 100 µM; in test [5] it was 83.1 µM; in [6], more than 100 µM. Besides, the TGI in [7] was 68.7 µM; in test [8], more than 100 µM; in test [9], 48.7 µM; in [10], 58.3 µM; in test [11], more than 100 µM.

Regarding `O=[N+]([O-])O.[Ga]`, the TGI in test [1] is 1780 µM; in [2], more than 10000 µM; in test [3] it was 2130 µM; in test [4], more than 10000 µM; in test [5] it was more than 10000 µM; in test [6], more than 10000 µM. In addition, the TGI is 5070 µM in [7]; 9510 µM in [8]; more than 10000 µM in [9]; more than 10000 µM in [10]; 2270 µM in test [11]; more than 10000 µM in test [12]. Further, the figures for the GI50 in test [5] and in [12] were 1260 µM and 1270 µM, respectively.

Take `O=C1CC2(CCNCC2)C(=O)N1N1CCCC1`: the TGI in test [1], in [2], in test [3], in [4], in test [5] and in test [6] was more than 100 µM in each case. The TGI in test [7], in test [8], in test [9], in test [10] and in [11] was more than 100 µM throughout.

`O=C(Cc1ccc(Cl)c(Cl)c1)N(CCc1ccc(Cl)c(Cl)c1)CCN1CCCC1`: the TGI in test [1] came to 3.35 µM; in test [2] it was 3.77 µM; in [3], 2.98 µM; in test [4] it was 4.73 µM; in test [5], 3.95 µM; in [6] it was 4.59 µM. Further, the TGI turned out to be 3.48 µM in test [7]; 4.91 µM in [8]; 3.38 µM in test [9]; 3.31 µM in [10]; 3.62 µM in [11].

Turning to `CN(C1=NCCO1)c1cccc2c1CCCC2`, the TGI in test [1] was more than 10 µM; in [2] it was 8.53 µM; in test [3], more than 10 µM; in test [4] it was more than 10 µM; in test [5], 8.81 µM; in test [6], more than 10 µM. In addition, the TGI in test [7] was more than 10 µM; in test [8], 6.14 µM; in [9] it was more than 10 µM; in test [10] it was more than 10 µM; in test [11] it was more than 10 µM.

`COc1ccc2c(c1)OC[C@@H]1c3cc4c(cc3O[C@H]21)OCO4`: the TGI in test [1], in test [3], in test [5], in [7], in test [13] and in test [8] was more than 100 µM each time. Also, the TGI in [10], in [11] and in [12] was more than 100 µM in each case.

In the case of `N#CC(c1cc2c(cc1Br)OCO2)N1CCOCC1` (configuration not stated), the TGI in [1] was 25.7 µM; in test [2], 71.2 µM; in test [3], more than 100 µM; in test [4], more than 100 µM; in test [5], more than 100 µM; in test [6], more than 100 µM. For the same molecule, the TGI is more than 100 µM in [7]; more than 100 µM in [8]; 18.4 µM in [9]; 92.1 µM in test [10]; more than 100 µM in test [11].

Consider `CCOC(=O)c1[nH]c2ccccc2c1C(=O)C[C@H](NC(=O)C(F)(F)F)C(=O)OC`, for which the TGI in [1], in [2], in test [3], in [4], in test [5] and in test [6] was more than 100 µM in each case. For the same molecule, the TGI in test [7], in test [8], in test [9], in [10] and in test [11] was more than 100 µM throughout.

Turning to `COC(=O)C1(Cc2ccccc2)Cc2ccc3c(c2C1=O)CCC3` (configuration not stated), the TGI is more than 63.3 µM in [1]; more than 100 µM in test [2]; 69.5 µM in test [3]; more than 100 µM in test [4]; more than 78.6 µM in test [5]; more than 100 µM in [6]. Also, the TGI in [7] was more than 100 µM; in test [8], more than 100 µM; in test [9], more than 77.9 µM; in [10], more than 76.9 µM; in test [11], more than 90.3 µM.

As to `COP1(=O)Oc2ccccc2C(=O)C(C(F)(F)F)(C(F)(F)F)O1` (configuration not stated), the TGI in test [1], in test [3], in [5], in [7], in test [13] and in test [10] was more than 100 µM throughout. The TGI in test [11], in [12] and in test [14] was more than 100 µM each time.
